Reference: patent US12568972B2, “Pyridazinol compounds and derivatives, preparation methods, herbicidal compositions and applications thereof” (Qingdao Kingagroot Chemical Compound Co., Ltd., priority 2018, dated 2026)

How the values were obtained:
Experiment in all cases: Post-emergence test, weed control effect
Assay type in all cases: in vivo
Settings in all cases: after 3 weeks
Amaranthus retroflexus = system: Amaranthus retroflexus
How it was run: (§1)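 Weeds sown in soil-filled pots and sprayed at 2-3 leaf stage (2-3 weeks after sowing) with compound in acetone/Tween-80/water plus 80% vegetable oil methyl ester synergist at 1500 g/ha. After 3 weeks in the greenhouse, fresh-weight growth inhibition scored on a 0-10 scale (10 = completely dead).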

Chenopodiaceae = system: Chenopodiaceae
How it was run: as §1

Rorippa indica = system: Rorippa indica
How it was run: as §1

Veronica polita = system: Veronica polita
How it was run: as §1

Cn1ccnc1S(=O)(=O)Oc1cc(C(F)(F)F)nnc1-c1cccc(F)c1 [Compound 1-150]
10: weed control effect, Amaranthus retroflexus (activity level) (Amaranthus retroflexus; Dose 3000 g/ha) | weed control effect, Chenopodiaceae (activity level) (Chenopodiaceae; Dose 3000 g/ha) | weed control effect, Rorippa indica (activity level) (Rorippa indica; Dose 3000 g/ha) | weed control effect, Veronica polita (activity level) (Veronica polita; Dose 3000 g/ha)

CS(=O)(=O)c1ccc(S(=O)(=O)Oc2cc(C(F)(F)F)nnc2-c2ccc(F)cc2)cc1 [Compound 1-137]
10: weed control effect, Amaranthus retroflexus (activity level) (Amaranthus retroflexus; Dose 3000 g/ha) | weed control effect, Chenopodiaceae (activity level) (Chenopodiaceae; Dose 3000 g/ha) | weed control effect, Rorippa indica (activity level) (Rorippa indica; Dose 3000 g/ha) | weed control effect, Veronica polita (activity level) (Veronica polita; Dose 3000 g/ha)

CCCCCCCCC(=O)Oc1cc(C(F)(F)F)nnc1-c1cccc(Br)c1 [Compound 1-15]
10: weed control effect, Amaranthus retroflexus (activity level) (Amaranthus retroflexus; Dose 3000 g/ha) | weed control effect, Chenopodiaceae (activity level) (Chenopodiaceae; Dose 3000 g/ha) | weed control effect, Rorippa indica (activity level) (Rorippa indica; Dose 3000 g/ha) | weed control effect, Veronica polita (activity level) (Veronica polita; Dose 3000 g/ha)

Cn1cc(-c2nnc(C(F)(F)F)cc2O)cn1 [Compound 839]
10: weed control effect (activity level), Amaranthus retroflexus (Amaranthus retroflexus; Dose 3000 g/ha) | weed control effect (activity level), Chenopodiaceae (Chenopodiaceae; Dose 3000 g/ha) | weed control effect (activity level), Rorippa indica (Rorippa indica; Dose 3000 g/ha) | weed control effect (activity level), Veronica polita (Veronica polita; Dose 3000 g/ha)

Cn1ccc2ccc(S(=O)(=O)Oc3cc(C(F)(F)F)nnc3-c3ccc(F)c(F)c3)cc21 [Compound 1-152]
10: weed control effect, Amaranthus retroflexus (activity level) (Amaranthus retroflexus; Dose 3000 g/ha) | weed control effect, Chenopodiaceae (activity level) (Chenopodiaceae; Dose 3000 g/ha) | weed control effect, Rorippa indica (activity level) (Rorippa indica; Dose 3000 g/ha) | weed control effect, Veronica polita (activity level) (Veronica polita; Dose 3000 g/ha)

CCSc1ncccc1C(=O)Oc1cc(C(F)(F)F)nnc1-c1ccc(F)c(F)c1 [Compound 1-113]
10: weed control effect, Amaranthus retroflexus (activity level) (Amaranthus retroflexus; Dose 3000 g/ha) | weed control effect, Chenopodiaceae (activity level) (Chenopodiaceae; Dose 3000 g/ha) | weed control effect, Rorippa indica (activity level) (Rorippa indica; Dose 3000 g/ha) | weed control effect, Veronica polita (activity level) (Veronica polita; Dose 3000 g/ha)

Oc1cc(C(F)(F)F)nnc1-c1ccc2c(c1)OC(F)(F)O2 [Compound 1286]
10: weed control effect (activity level), Amaranthus retroflexus (Amaranthus retroflexus; Dose 3000 g/ha) | weed control effect (activity level), Chenopodiaceae (Chenopodiaceae; Dose 3000 g/ha) | weed control effect (activity level), Rorippa indica (Rorippa indica; Dose 3000 g/ha) | weed control effect (activity level), Veronica polita (Veronica polita; Dose 3000 g/ha)

O=S(=O)(Cc1ccccc1)Oc1cc(C(F)(F)F)nnc1-c1ccc(F)cc1 [Compound 1-143]
10: weed control effect, Amaranthus retroflexus (activity level) (Amaranthus retroflexus; Dose 3000 g/ha) | weed control effect, Chenopodiaceae (activity level) (Chenopodiaceae; Dose 3000 g/ha) | weed control effect, Rorippa indica (activity level) (Rorippa indica; Dose 3000 g/ha) | weed control effect, Veronica polita (activity level) (Veronica polita; Dose 3000 g/ha)

CC(C)Sc1ccc(-c2nnc(C(F)(F)F)cc2O)cc1 [Compound 96]
10: weed control effect (activity level), Amaranthus retroflexus (Amaranthus retroflexus; dose 1000 g/ha) | weed control effect (activity level), Chenopodiaceae (Chenopodiaceae; dose 1000 g/ha) | weed control effect (activity level), Rorippa indica (Rorippa indica; dose 1000 g/ha) | weed control effect (activity level), Veronica polita (Veronica polita; dose 1000 g/ha)

O=[N+]([O-])c1ccc(S(=O)(=O)Oc2cc(C(F)(F)F)nnc2-c2ccc(F)c(F)c2)cc1 [Compound 1-135]
10: weed control effect, Amaranthus retroflexus (activity level) (Amaranthus retroflexus; Dose 3000 g/ha) | weed control effect, Chenopodiaceae (activity level) (Chenopodiaceae; Dose 3000 g/ha) | weed control effect, Rorippa indica (activity level) (Rorippa indica; Dose 3000 g/ha) | weed control effect, Veronica polita (activity level) (Veronica polita; Dose 3000 g/ha)

O=S(=O)(Oc1cc(C(F)(F)F)nnc1-c1ccccc1)c1cc(Cl)c(Cl)cc1Cl [Compound 1-136]
10: weed control effect, Amaranthus retroflexus (activity level) (Amaranthus retroflexus; Dose 3000 g/ha) | weed control effect, Chenopodiaceae (activity level) (Chenopodiaceae; Dose 3000 g/ha) | weed control effect, Rorippa indica (activity level) (Rorippa indica; Dose 3000 g/ha) | weed control effect, Veronica polita (activity level) (Veronica polita; Dose 3000 g/ha)

Cc1nc(F)ccc1-c1nnc(C(F)(F)F)cc1O [Compound 223]
10: weed control effect (activity level), Amaranthus retroflexus (Amaranthus retroflexus; dose 2000 g/ha) | weed control effect (activity level), Chenopodiaceae (Chenopodiaceae; dose 2000 g/ha) | weed control effect (activity level), Rorippa indica (Rorippa indica; dose 2000 g/ha) | weed control effect (activity level), Veronica polita (Veronica polita; dose 2000 g/ha)

O=[N+]([O-])c1ccc(Cl)c(-c2nnc(C(F)(F)F)cc2O)c1 [Compound 69]
10: weed control effect (activity level), Amaranthus retroflexus (Amaranthus retroflexus; dose 1000 g/ha) | weed control effect (activity level), Chenopodiaceae (Chenopodiaceae; dose 1000 g/ha) | weed control effect (activity level), Rorippa indica (Rorippa indica; dose 1000 g/ha) | weed control effect (activity level), Veronica polita (Veronica polita; dose 1000 g/ha)

Cc1ccc(F)c(-c2nnc(C(F)(F)F)cc2O)c1 [Compound 57]
10: weed control effect (activity level), Amaranthus retroflexus (Amaranthus retroflexus; dose 1000 g/ha) | weed control effect (activity level), Chenopodiaceae (Chenopodiaceae; dose 1000 g/ha) | weed control effect (activity level), Rorippa indica (Rorippa indica; dose 1000 g/ha) | weed control effect (activity level), Veronica polita (Veronica polita; dose 1000 g/ha)

CCc1cc(C(F)(F)F)cc(-c2nnc(C(F)(F)F)cc2O)c1C#N [Compound 163]
10: weed control effect (activity level), Amaranthus retroflexus (Amaranthus retroflexus; dose 2000 g/ha) | weed control effect (activity level), Chenopodiaceae (Chenopodiaceae; dose 2000 g/ha) | weed control effect (activity level), Rorippa indica (Rorippa indica; dose 2000 g/ha) | weed control effect (activity level), Veronica polita (Veronica polita; dose 2000 g/ha)

O=S(=O)(Oc1cc(C(F)(F)F)nnc1-c1cccc(F)c1)c1ccc(Oc2ccccc2)nc1 [Compound 1-146]
10: weed control effect, Amaranthus retroflexus (activity level) (Amaranthus retroflexus; Dose 3000 g/ha) | weed control effect, Chenopodiaceae (activity level) (Chenopodiaceae; Dose 3000 g/ha) | weed control effect, Rorippa indica (activity level) (Rorippa indica; Dose 3000 g/ha) | weed control effect, Veronica polita (activity level) (Veronica polita; Dose 3000 g/ha)

Cn1ncc(F)c1-c1nnc(C(F)(F)F)cc1O [Compound 804]
10: weed control effect (activity level), Amaranthus retroflexus (Amaranthus retroflexus; Dose 3000 g/ha) | weed control effect (activity level), Chenopodiaceae (Chenopodiaceae; Dose 3000 g/ha) | weed control effect (activity level), Rorippa indica (Rorippa indica; Dose 3000 g/ha) | weed control effect (activity level), Veronica polita (Veronica polita; Dose 3000 g/ha)

Oc1cc(C(F)(F)F)nnc1-c1cc(Cl)nc(Cl)c1 [Compound 218]
10: weed control effect (activity level), Amaranthus retroflexus (Amaranthus retroflexus; dose 2000 g/ha) | weed control effect (activity level), Chenopodiaceae (Chenopodiaceae; dose 2000 g/ha) | weed control effect (activity level), Rorippa indica (Rorippa indica; dose 2000 g/ha) | weed control effect (activity level), Veronica polita (Veronica polita; dose 2000 g/ha)
